Assay results reported in ChEMBL document CHEMBL1201862, “PubChem BioAssay data set” (2004).
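In this assay, cells in 96-well plates receive the compound at five concentrations for 48 hours. Endpoints are linearly interpolated between the surrounding concentrations. Abbreviation: GI50, concentration required for 50% inhibition of growth.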 Activity calls are given as the source filed them. No stated cut-off is given here; in the data, active = GI50 up to about 1.1 µM and inactive = higher.

Columns and labels:
Assay in all cases: NCI-60 cell line screen, 48 h
786-0 = tested on: 786-0
A498 = tested on: A498
A549 = tested on: A549
ACHN = tested on: ACHN
BT-549 = tested on: BT-549
CAKI-1 = tested on: CAKI-1
CCRF-CEM = tested on: CCRF-CEM
COLO 205 = tested on: COLO 205
DU-145 = tested on: DU-145
EKVX = tested on: EKVX
HCC 2998 = tested on: HCC 2998
HCT-116 = tested on: HCT-116
HCT-15 = tested on: HCT-15
HL-60 = tested on: HL-60
HOP-62 = tested on: HOP-62
HOP-92 = tested on: HOP-92
HT-29 = tested on: HT-29
Hs-578T = tested on: Hs-578T
IGROV-1 = tested on: IGROV-1
K562 = tested on: K562
KM12 = tested on: KM12
LOX IMVI = tested on: LOX IMVI
M14 = tested on: M14
MCF7 = tested on: MCF7
MDA-MB-231 = tested on: MDA-MB-231
MDA-MB-435 = tested on: MDA-MB-435
MDA-N = tested on: MDA-N
MOLT-4 = tested on: MOLT-4
Malme-3M = tested on: Malme-3M
NCI-H226 = tested on: NCI-H226
NCI-H23 = tested on: NCI-H23
NCI-H460 = tested on: NCI-H460
NCI-H522 = tested on: NCI-H522
NCI/ADR-RES = tested on: NCI/ADR-RES
OVCAR-3 = tested on: OVCAR-3
OVCAR-4 = tested on: OVCAR-4
OVCAR-5 = tested on: OVCAR-5
OVCAR-8 = tested on: OVCAR-8
RPMI-8226 = tested on: RPMI-8226
RXF 393 = tested on: RXF 393
SF-268 = tested on: SF-268
SF-295 = tested on: SF-295
SF-539 = tested on: SF-539
SK-MEL-28 = tested on: SK-MEL-28
SK-MEL-2 = tested on: SK-MEL-2
SK-MEL-5 = tested on: SK-MEL-5
SK-OV-3 = tested on: SK-OV-3
SN12C = tested on: SN12C
SNB-19 = tested on: SNB-19
SR = tested on: SR
SW-620 = tested on: SW-620
T47D = tested on: T47D
TK-10 = tested on: TK-10
U-251 = tested on: U-251
UACC-257 = tested on: UACC-257
UACC-62 = tested on: UACC-62
UO-31 = tested on: UO-31
PC-3 = tested on: PC-3

CCc1n[nH]c(=O)n1/N=C/c1ccccc1Cl
GI50 (786-0): > 100 µM (inactive)
GI50 (A498): > 100 µM (inactive)
GI50 (A549): > 100 µM (inactive)
GI50 (ACHN): > 100 µM (inactive)
GI50 (BT-549): > 100 µM (inactive)
GI50 (CAKI-1): > 100 µM (inactive)
GI50 (CCRF-CEM): > 100 µM (inactive)
GI50 (COLO 205): > 100 µM (inactive)
GI50 (DU-145): > 100 µM (inactive)
GI50 (EKVX): 1.42 µM (inactive)
GI50 (HCC 2998): > 100 µM (inactive)
GI50 (HCT-116): > 100 µM (inactive)
GI50 (HCT-15): > 100 µM
GI50 (HL-60): > 100 µM (inactive)
GI50 (HOP-62): 76.2 µM (inactive)
GI50 (HOP-92): 74.8 µM (inactive)
GI50 (HT-29): > 100 µM (inactive)
GI50 (Hs-578T): 2.69 µM (inactive)
GI50 (IGROV-1): 78.3 µM (inactive)
GI50 (K562): > 100 µM (inactive)
GI50 (KM12): 93.8 µM (inactive)
GI50 (LOX IMVI): > 100 µM (inactive)
GI50 (M14): > 100 µM (inactive)
GI50 (MCF7): > 100 µM (inactive)
GI50 (MDA-MB-231): > 100 µM (inactive)
GI50 (MDA-MB-435): 85.7 µM (inactive)
GI50 (MDA-N): > 100 µM (inactive)
GI50 (MOLT-4): > 100 µM (inactive)
GI50 (Malme-3M): > 100 µM (inactive)
GI50 (NCI-H226): 88.5 µM (inactive)
GI50 (NCI-H23): > 100 µM (inactive)
GI50 (NCI-H460): > 100 µM (inactive)
GI50 (NCI-H522): > 100 µM (inactive)
GI50 (NCI/ADR-RES): > 100 µM (inactive)
GI50 (OVCAR-3): > 100 µM (inactive)
GI50 (OVCAR-4): > 100 µM (inactive)
GI50 (OVCAR-5): > 100 µM (inactive)
GI50 (OVCAR-8): > 100 µM (inactive)
GI50 (RPMI-8226): > 100 µM (inactive)
GI50 (RXF 393): 0.474 µM (active)
GI50 (SF-268): 50 µM (inactive)
GI50 (SF-295): > 100 µM (inactive)
GI50 (SF-539): > 100 µM (inactive)
GI50 (SK-MEL-28): > 100 µM (inactive)
GI50 (SK-MEL-2): > 100 µM (inactive)
GI50 (SK-MEL-5): > 100 µM (inactive)
GI50 (SK-OV-3): > 100 µM (inactive)
GI50 (SN12C): > 100 µM (inactive)
GI50 (SNB-19): > 100 µM (inactive)
GI50 (SR): > 100 µM (inactive)
GI50 (SW-620): > 100 µM (inactive)
GI50 (T47D): > 100 µM (inactive)
GI50 (TK-10): > 100 µM (inactive)
GI50 (U-251): 65.8 µM (inactive)
GI50 (UACC-257): > 100 µM (inactive)
GI50 (UACC-62): 53.6 µM (inactive)
GI50 (UO-31): > 100 µM (inactive)

C=C1C(=O)O[C@@H]2O[C@@]3(C)CC[C@H]4[C@H](C)CC[C@@H]1[C@@]24O3 [DEOXYARTEMISITENE]
GI50 (786-0): 13.6 µM (inactive)
GI50 (A498): 34.6 µM (inactive)
GI50 (A549): 34.8 µM (inactive)
GI50 (ACHN): 11.3 µM (inactive)
GI50 (BT-549): 7.46 µM (inactive)
GI50 (CAKI-1): 15.7 µM (inactive)
GI50 (CCRF-CEM): 3.47 µM (inactive)
GI50 (COLO 205): 11.9 µM (inactive)
GI50 (DU-145): 12.9 µM (inactive)
GI50 (EKVX): 13.3 µM (inactive)
GI50 (HCC 2998): 21.9 µM (inactive)
GI50 (HCT-116): 10.8 µM (inactive)
GI50 (HCT-15): 10.9 µM
GI50 (HL-60): 2.63 µM (inactive)
GI50 (HOP-62): 49.5 µM (inactive)
GI50 (HOP-92): 3.49 µM (inactive)
GI50 (HT-29): 17.8 µM (inactive)
GI50 (Hs-578T): 39 µM (inactive)
GI50 (IGROV-1): 3.38 µM (inactive)
GI50 (K562): 3.56 µM (inactive)
GI50 (KM12): 4.19 µM (inactive)
GI50 (LOX IMVI): 16.1 µM (inactive)
GI50 (M14): 24.9 µM (inactive)
GI50 (MCF7): 5.52 µM (inactive)
GI50 (MDA-MB-231): 25.9 µM (inactive)
GI50 (MDA-MB-435): 29.2 µM (inactive)
GI50 (MDA-N): 13.7 µM (inactive)
GI50 (MOLT-4): 9.08 µM (inactive)
GI50 (Malme-3M): 14.2 µM (inactive)
GI50 (NCI-H226): 40 µM (inactive)
GI50 (NCI-H23): 15.2 µM (inactive)
GI50 (NCI-H460): 22.3 µM (inactive)
GI50 (NCI-H522): 6.58 µM (inactive)
GI50 (OVCAR-3): 22.2 µM (inactive)
GI50 (OVCAR-4): 15.8 µM (inactive)
GI50 (OVCAR-5): 38.5 µM (inactive)
GI50 (PC-3): 19.5 µM (inactive)
GI50 (RPMI-8226): 6.37 µM (inactive)
GI50 (RXF 393): 14.4 µM (inactive)
GI50 (SF-268): 28.1 µM (inactive)
GI50 (SF-295): 27.1 µM (inactive)
GI50 (SF-539): 11 µM (inactive)
GI50 (SK-MEL-28): 40.6 µM (inactive)
GI50 (SK-MEL-2): 18.2 µM (inactive)
GI50 (SK-MEL-5): 19.1 µM (inactive)
GI50 (SK-OV-3): 36.1 µM (inactive)
GI50 (SN12C): 19 µM (inactive)
GI50 (SNB-19): 47.2 µM (inactive)
GI50 (SR): 7.18 µM (inactive)
GI50 (SW-620): 15.5 µM (inactive)
GI50 (T47D): 13.6 µM (inactive)
GI50 (TK-10): 15.9 µM (inactive)
GI50 (U-251): 43.4 µM (inactive)
GI50 (UACC-257): 18.9 µM (inactive)
GI50 (UACC-62): 13 µM (inactive)
GI50 (UO-31): 19.3 µM (inactive)
